Results taken from patent US20120083522A1, “MODULATION OF INFLAMMATORY RESPONSES BY FACTOR XI” (Isis Pharmaceuitcals, inc., priority 2009, published 2012).
In the oligonucleotide strings, read from the 5' end, every base follows the letter of its sugar. An asterisk marks phosphorothioate; unmarked linkages are phosphodiester. Other units and linkages are bracketed, terminal groups are in braces. A string of capitals states the bases alone. e = 2'-O-(2-methoxyethyl) (MOE); [5mC] = 5-methylcytosine; d = 2'-deoxy (DNA)

Key:
Type in all cases: in vivo
[1] = Tolerability in CD1 mice: liver function (Example 17); parameters: Albumin: unit not given here; conditions: plasma, 50 mg/kg s.c. twice a week, 50 mg/kg
[2] = Tolerability in CD1 mice: kidney function (Example 17); conditions: plasma, 50 mg/kg s.c. twice a week
Source text: Results are presented in Tables 62 and 63, expressed in mg/dL.

[3] = Tolerability in CD1 mice: hematology assays (Example 17); conditions: for lymphocyte count / monocyte count / neutrophil count: percent of total blood cell count; for HCT / MCH / MCHC / MCV / WBC count: blood, 50 mg/kg s.c. twice a week
Description: A control group of five mice was injected subcutaneously with PBS for 2 weeks. All experimental groups (i.e. ASO treated mice at 2, 4, 6 weeks) were compared to the control group (i.e. PBS, 2 weeks).
Blood obtained from all mice groups were sent to Antech Diagnostics for hematocrit (HCT), mean corpuscular volume (MCV), mean corpuscular hemoglobin (MCH), and mean corpuscular hemoglobin concentration (MCHC) measurements and analyses, as well as measurements of the various blood cells, such as WBC (neutrophils, lymphocytes, and monocytes), RBC, and platelets, and total hemoglobin content. Percentages given in the tables indicate the percent of total blood cell count.

[4] = Tolerability in Sprague-Dawley rats: liver function (Example 19); conditions: plasma, 50 mg/kg s.c. twice per week for 6 weeks, 50 mg/kg
Source text: (§1) Urine samples were taken before the start of treatment.

[5] = Tolerability in Sprague-Dawley rats: kidney function (Example 19); conditions: Sprague-Dawley rats, plasma, 50 mg/kg s.c. twice per week for 6 weeks; 50 mg/kg
Source text: as §1

[6] = Tolerability in Sprague-Dawley rats: hematology assays (Example 19); conditions: 50 mg/kg s.c. twice per week for 6 weeks; for Lymphocytes / Monocytes / Neutrophils / RBC / Hemoglobin / MCHC: 50 mg/kg; for MCH / Hemoglobin / MCHC: title says % control
Source text: as §1

[7] = as above; conditions: 50 mg/kg s.c. twice per week for 6 weeks, 50 mg/kg; for HCT / MCV: title says % control

Sequence “GCCCTTCATGTCTAGGTCCA [ISIS 416825] (eG*e[5mC]*e[5mC]*e[5mC]*eT*dT*d[5mC]*dA*dT*dG*dT*d[5mC]*dT*dA*dG*eG*eT*e[5mC]*e[5mC]*eA) [5-10-5 MOE gapmer]” has an ALT ([1]; 2 weeks) of 64 IU/L, an AST ([1]; 2 weeks) of 82 IU/L and an Albumin ([1]; 2 weeks) of 3.6. It also gave a Bilirubin ([1]; 2 weeks) of 0.41 mg/dL, an ALT ([1]; 4 weeks) of 314 IU/L and an AST ([1]; 4 weeks) of 239 IU/L. The Albumin ([1]; 4 weeks) was 3.4, the Bilirubin ([1]; 4 weeks) was 0.69 mg/dL and the ALT ([1]; 6 weeks) was 507 IU/L. It also gave an AST ([1]; 6 weeks) of 301 IU/L, an Albumin ([1]; 6 weeks) of 3.5 and a Bilirubin ([1]; 6 weeks) of 0.29 mg/dL. It also gave a BUN ([2]; 2 weeks, 50 mg/kg) of 29 mg/dL, a creatinine ([2]; 2 weeks, 50 mg/kg) of 0.14 mg/dL and a BUN ([2]; 4 weeks, 50 mg/kg) of 35 mg/dL. For the same sequence, the creatinine ([2]; 4 weeks, 50 mg/kg) was 0.21 mg/dL, the creatinine ([2]; 6 weeks) was 0.17 mg/dL and the BUN ([2]; 6 weeks, 50 mg/kg) was 31 mg/dL. The RBC count ([3]; 2 weeks) was 9 cells/pL, the hemoglobin content ([3]; 2 weeks) was 14.5 g/dL and the platelet count ([3]; 2 weeks) was 1689 cells/nL. The lymphocyte count ([3]; 2 weeks) was 82%, the monocyte count ([3]; 2 weeks) was 2% and the neutrophil count ([3]; 2 weeks) was 15%. The RBC count ([3]; 4 weeks) was 9 cells/pL, the hemoglobin content ([3]; 4 weeks) was 14.1 g/dL and the platelet count ([3]; 4 weeks) was 1229 cells/nL. For the same sequence, the lymphocyte count ([3]; 4 weeks) was 53%, the monocyte count ([3]; 4 weeks) was 5% and the neutrophil count ([3]; 4 weeks) was 43%. For the same sequence, the RBC count ([3]; 6 weeks) was 8 cells/pL, the hemoglobin content ([3]; 6 weeks) was 12.1 g/dL and the platelet count ([3]; 6 weeks) was 942 cells/nL. It also gave a lymphocyte count ([3]; 6 weeks) of 71%, a monocyte count ([3]; 6 weeks) of 4% and a neutrophil count ([3]; 6 weeks) of 23%. For the same sequence, the HCT ([3]; 2 weeks, 50 mg/kg) was 49%, the MCH ([3]; 2 weeks, 50 mg/kg) was 17 pg and the MCHC ([3]; 2 weeks, 50 mg/kg) was 29%. For the same sequence, the MCV ([3]; 2 weeks, 50 mg/kg) was 58 fL, the WBC count ([3]; 2 weeks, 50 mg/kg) was 8 cells/nL and the MCH ([3]; 4 weeks) was 16 pg. It also gave a WBC count ([3]; 4 weeks) of 8 cells/nL, an HCT ([3]; 4 weeks, 50 mg/kg) of 46% and an MCHC ([3]; 4 weeks, 50 mg/kg) of 31%. It also gave an MCV ([3]; 4 weeks, 50 mg/kg) of 53 fL, an HCT ([3]; 6 weeks, 50 mg/kg) of 40% and an MCH ([3]; 6 weeks, 50 mg/kg) of 15 pg. It also gave an MCHC ([3]; 6 weeks, 50 mg/kg) of 31%, an MCV ([3]; 6 weeks, 50 mg/kg) of 51 fL and a WBC count ([3]; 6 weeks, 50 mg/kg) of 6 cells/nL. For the same sequence, the ALT [4] was 89 IU/L, the AST [4] was 17 IU/L and the Albumin [4] was 2 mg/dL. The Bilirubin [4] was 4 mg/dL, the BUN [5] was 7 mg/dL and the creatinine [5] was 17 mg/dL. It also gave a Lymphocytes [6] of 3%, a Monocytes [6] of 15% and a Neutrophils [6] of 25%. The RBC [6] was 2 pL⁻¹, the MCH [6] was 2 pg and the Hemoglobin [6] was 2 g/dL. The MCHC [6] was 4%, the Platelets [7] was 6 10^3/μL and the WBC [7] was 22 nL⁻¹. It also gave an HCT [7] of 2% and an MCV [7] of 4 fL.
“GCCCTTCATGTCTAGGTCCA [ISIS 416892] (eG*e[5mC]*e[5mC]*d[5mC]*dT*dT*d[5mC]*dA*dT*dG*dT*d[5mC]*dT*dA*dG*dG*dT*e[5mC]*e[5mC]*eA) [3-14-3 MOE gapmer]” gave an ALT ([1]; 2 weeks) of 66 IU/L, an AST ([1]; 2 weeks) of 121 IU/L and an Albumin ([1]; 2 weeks) of 3.2. It also gave a Bilirubin ([1]; 2 weeks) of 0.38 mg/dL, an ALT ([1]; 4 weeks) of 1526 IU/L and an AST ([1]; 4 weeks) of 1347 IU/L. For the same sequence, the Albumin ([1]; 4 weeks) was 4.0, the Bilirubin ([1]; 4 weeks) was 2.99 mg/dL and the ALT ([1]; 6 weeks) was 1939 IU/L. The AST ([1]; 6 weeks) was 1443 IU/L, the Albumin ([1]; 6 weeks) was 4.4 and the Bilirubin ([1]; 6 weeks) was 0.50 mg/dL. For the same sequence, the BUN ([2]; 2 weeks, 50 mg/kg) was 19 mg/dL, the creatinine ([2]; 2 weeks, 50 mg/kg) was 0.11 mg/dL and the BUN ([2]; 4 weeks, 50 mg/kg) was 28 mg/dL. For the same sequence, the creatinine ([2]; 4 weeks, 50 mg/kg) was 0.20 mg/dL, the creatinine ([2]; 6 weeks) was 0.17 mg/dL and the BUN ([2]; 6 weeks, 50 mg/kg) was 23 mg/dL. It also gave an RBC count ([3]; 2 weeks) of 7 cells/pL, a hemoglobin content ([3]; 2 weeks) of 13.0 g/dL and a platelet count ([3]; 2 weeks) of 1687 cells/nL. For the same sequence, the lymphocyte count ([3]; 2 weeks) was 79%, the monocyte count ([3]; 2 weeks) was 3% and the neutrophil count ([3]; 2 weeks) was 19%. The RBC count ([3]; 4 weeks) was 9 cells/pL, the hemoglobin content ([3]; 4 weeks) was 13.5 g/dL and the platelet count ([3]; 4 weeks) was 636 cells/nL. For the same sequence, the lymphocyte count ([3]; 4 weeks) was 52%, the monocyte count ([3]; 4 weeks) was 6% and the neutrophil count ([3]; 4 weeks) was 43%. The RBC count ([3]; 6 weeks) was 9 cells/pL, the hemoglobin content ([3]; 6 weeks) was 13.1 g/dL and the platelet count ([3]; 6 weeks) was 1004 cells/nL. It also gave a lymphocyte count ([3]; 6 weeks) of 64%, a monocyte count ([3]; 6 weeks) of 7% and a neutrophil count ([3]; 6 weeks) of 28%. It also gave an HCT ([3]; 2 weeks, 50 mg/kg) of 48%, an MCH ([3]; 2 weeks, 50 mg/kg) of 18 pg and an MCHC ([3]; 2 weeks, 50 mg/kg) of 30%. It also gave an MCV ([3]; 2 weeks, 50 mg/kg) of 59 fL, a WBC count ([3]; 2 weeks, 50 mg/kg) of 5 cells/nL and an MCH ([3]; 4 weeks) of 16 pg. It also gave a WBC count ([3]; 4 weeks) of 8 cells/nL, an HCT ([3]; 4 weeks, 50 mg/kg) of 42% and an MCHC ([3]; 4 weeks, 50 mg/kg) of 32%. It also gave an MCV ([3]; 4 weeks, 50 mg/kg) of 49 fL, an HCT ([3]; 6 weeks, 50 mg/kg) of 45% and an MCH ([3]; 6 weeks, 50 mg/kg) of 16 pg. The MCHC ([3]; 6 weeks, 50 mg/kg) was 30%, the MCV ([3]; 6 weeks, 50 mg/kg) was 53 fL and the WBC count ([3]; 6 weeks, 50 mg/kg) was 9 cells/nL. The ALT [4] was 113 IU/L, the AST [4] was 183 IU/L and the Albumin [4] was 8 mg/dL. It also gave a Bilirubin [4] of 1 mg/dL, a BUN [5] of 188 mg/dL and a creatinine [5] of 1 mg/dL. The Lymphocytes [6] was 18%, the Monocytes [6] was 58% and the Neutrophils [6] was 92%. For the same sequence, the RBC [6] was 12 pL⁻¹, the MCH [6] was 2 pg and the Hemoglobin [6] was 14 g/dL. The MCHC [6] was 0%, the Platelets [7] was 66 10^3/μL and the WBC [7] was 68 nL⁻¹. For the same sequence, the HCT [7] was 13% and the MCV [7] was 1 fL.
